Data published in ChEMBL document CHEMBL1144066, “Aurantosides D, E, and F: new antifungal tetramic acid glycosides from the marine sponge Siliquariaspongia japonica” (J Nat Prod, 1999).
Converted amounts (≈) assume the structure as drawn. The source made the active and inactive calls. The rule behind the calls is not given here.

Key:
Candida albicans [1] = assay: Antifungal activity against Candida albicans at 2 ug/disk; type: functional; conditions: for zone of inhibition at 2 µg/disc: read-out: IZ
Candida albicans [2] = assay: Antifungal activity against Candida albicans; type: functional
P388 = assay: Cytotoxicity against mouse P388 cells; type: functional, cell-based
Aspergillus fumigatus [3] = assay: Antifungal activity against Aspergillus fumigatus at 2 ug/disk; type: functional; conditions: read-out: IZ
Aspergillus fumigatus [4] = assay: Antifungal activity against Aspergillus fumigatus; type: functional

Row | Compound | MIC (Candida albicans [2]) [µg/mL] | MIC (Aspergillus fumigatus [4]) [µg/mL] | Activity (Candida albicans [1]) | Activity (Candida albicans [2]) | IC50 (P388) [µg/mL] | zone of inhibition at 2 µg/disc (Candida albicans [1]) [mm] | zone of inhibition at 2 µg/disc (Aspergillus fumigatus [3]) [mm]
1 | CO[C@@H]1[C@H](O[C@@H]2CO[C@@H](O[C@@H]3[C@@H](O)[C@H](O)CO[C@H]3N3C(=O)/C(=C(O)/C=C/C=C/C=C/C=C/C=C(Cl)/C=C/C=C/C=C(/C)Cl)C(=O)[C@@H]3CC(N)=O)[C@@H](O)[C@@H]2O)O[C@H](C)[C@H]1O |  |  | inactive | inactive |  |  | 
2 | CO[C@@H]1[C@H](O[C@@H]2CO[C@@H](O[C@@H]3[C@@H](O)[C@H](O)CO[C@H]3N3C(=O)/C(=C(O)/C=C/C=C/C=C/C=C/C=C(Cl)/C=C(\C)Cl)C(=O)[C@@H]3CC(N)=O)[C@@H](O)[C@@H]2O)O[C@H](C)[C@H]1O [AURANTOSIDE A] | 1.25 (≈ 1.53 µM) | 0.16 (≈ 0.196 µM) |  |  | > 5 | 11.3 | 18
3 | C/C(Cl)=C/C=C/C(Cl)=C/C=C/C=C/C=C/C=C/C(O)=C1\C(=O)[C@H](CC(N)=O)N([C@@H]2OC[C@@H](O)[C@H](O)[C@H]2O[C@@H]2OC[C@@H](O[C@@H]3O[C@H](C)[C@@H](O)[C@@H]3O)[C@@H](O)[C@@H]2O)C1=O [AURANTOSIDE D] |  |  |  |  | 0.2 (≈ 0.241 µM) | 9.5 | 11

The next lines start with results.

Row | MIC (Candida albicans [2]) [µg/mL] | MIC (Aspergillus fumigatus [4]) [µg/mL] | Compound | Activity (Candida albicans [1]) | Activity (Candida albicans [2]) | IC50 (P388) [µg/mL] | zone of inhibition at 2 µg/disc (Candida albicans [1]) [mm] | zone of inhibition at 2 µg/disc (Aspergillus fumigatus [3]) [mm]
4 | 0.63 (≈ 0.784 µM) | 0.16 (≈ 0.199 µM) | C\C(Cl)=C/C(Cl)=C/C=C/C=C/C=C/C=C/C(O)=C1\C(=O)[C@H](CC(N)=O)N([C@@H]2OC[C@@H](O)[C@H](O)[C@H]2O[C@@H]2OC[C@@H](O[C@@H]3O[C@H](C)[C@@H](O)[C@@H]3O)[C@@H](O)[C@@H]2O)C1=O [AURANTOSIDE B] |  |  | > 5 | 11.8 | 17.2
5 | 0.16 (≈ 0.19 µM) | 0.04 (≈ 0.0474 µM) | CO[C@@H]1[C@H](O[C@@H]2CO[C@@H](O[C@@H]3[C@@H](O)[C@H](O)CO[C@H]3N3C(=O)/C(=C(O)/C=C/C=C/C=C/C=C/C=C(Cl)/C=C/C=C(/C)Cl)C(=O)[C@@H]3CC(N)=O)[C@@H](O)[C@@H]2O)O[C@H](C)[C@H]1O [AURANTOSIDE E] |  |  | 0.2 (≈ 0.237 µM) | 9.7 | 13.6
